“Also recorded” adds a separate entry of the source.
Experiments:
[1] = Single dose PK study in mice (plasma concentration)
Experimental: C57BL/6 mice (n=3/group) were administered a single intravenous dose of IL-15 (control) at 0.3 mg/kg) or of Conjugate 2 at a dose of 0.3 mg/kg. Following administration, blood samples were collected at various time points post administration (24 hours, 48 hours, 78 hours, 96 hours). […] Finally, at each time point, plasma concentration of drug was determined.
For PK analysis, Conjugate 1 was administered as a single intravenous dose at 0.3 mg/kg in balb/c mice (n=3). Following administration, mice were humanely sacrificed and plasma was collected 24, 48, 72, 96, 120 and 144 hours post treatment. From a separate study, mice were administered a single intravenous dose of IL-15 (0.5 mg/kg). Samples from these mice were collected at the indicated time points within 6 hours of treatment.
Balb/c mice (n=3/group) were administered a single intravenous dose of IL-15 (500 ug/kg) or of Conjugate 1 at 10, 30, 100, 300 and 1000 μg/kg. Blood samples were collected at the indicated time points post administration (conjugate 1:24, 48, 72, 96, 120, 144, 240 hours; IL-15 control: 0.03, 0.08, 0.25, 0.5, 1, 2, 4, 6, 8, hours) and plasma concentration of drug was determined.

human PBMCs = experiment: HuPBMC-pStat5 assay (flow cytometry, lymphocyte subpopulations); format: cell-based
Experimental: The potency of IL-15 or long acting IL-15 R agonists on various human lymphocyte subpopulations was determined by phospho-STAT5 (Y694) dose response assay. Frozen human PBMCs from multiple donors were supplied by AllCells. 1×10^6 cells/100ul were cultured in complete RPMI media for 2 hours and then incubated with the indicated concentrations (10,000ng/ml-0.001ng/ml serial dilutions) of IL-15 or conjugates for 20minutes at 37c. The cells were then fixed (using BD Cytofix) and permeabilized (using 100% pre-chilled methanol) and stained with antibodies for CD3, CD4, CD8, CD4-Tregs (CD4+CD25+Foxp3+), CD56 and phosphorylated STAT5 (Y694) before analysis by flow cytometry. Concentration-response relationships were used to calculate the EC50 values.
Assessment of in-vitro activity of exemplary long-acting IL-15 receptor agonists (e.g., Conjugates 1, 3 and 5) was carried out by investigating signaling in NK cell subsets of human PBMCs as shown in FIGS. 10A (CD56bright cells) and 10B (CD56dim cells). STAT5 phosphorylation was evaluated as previously described for assessing IL-15 signaling activity of the long acting IL-15 receptor agonists.
A second study was conducted to investigate/compare the pStat5 response of human PBMCs obtained from two donors (CD3, CD4, CD8, CD56 (bright and dim) and CD4-Tregs (CD25+Foxp3+)) to IL-15, Conjugate 1 and Conjugate 5. An […] dose response was examined using a 10-fold dilution with a dose range of 0.001-10000 ng/ml and a 20 min stimulation. Each of the test articles was diluted in IL-15 buffer+0.1% BSA.
Assessment of in vitro activity of Conjugate 1 was carried out by investigating NK and CD8 JAK/STAT signaling after treatment of human PBMCs with IL-15 or Conjugate 1 at a dose range of 0.001-10000 ng/ml. STAT5 phosphorylation was assessed as previously described.

With “IL-15: recombinant human IL-15 from E. coli, SEQ ID NO: 1, non-glycosylated, 12.9 kDa; unconjugated comparator” as the substance, how does the half-life ([1]; balb/c mice, single i.v., Conjugate 1 0.3 mg/kg, IL-15 0.5 mg/kg (Example 16)) read?
Its half-life is “less than 1 hours”.

What about the “plasma levels following administration” value ([1]; mice, single i.v. dose) of the same substance?
Its value is “rapid drop in plasma levels; also recorded: rapidly cleared”.

And the “EC50 (ng/ml)-% pSTAT5 CD3 donor1” value (human PBMCs; CD3 cells, donor1, 20 min stimulation)?
Its value is 0.17 ng/ml.

And the “EC50 (ng/ml)-% pSTAT5 CD3 donor2” value (human PBMCs; CD3 cells, donor2, 20 min stimulation)?
Its value is 0.17 ng/ml.

And the “EC50 (ng/ml)-% pSTAT5 Treg donor1” value (human PBMCs; CD4-Treg cells, donor1)?
Its value is 0.08 ng/ml.

What about the “EC50 (ng/ml)-% pSTAT5 Treg donor2” value (human PBMCs; CD4-Treg cells, donor2) of the same substance?
The value was 0.084 ng/ml.

What about the “EC50 (ng/ml)-% pSTAT5 CD4 donor1” value (human PBMCs; CD4 cells, donor1) of the same substance?
Its value is 0.177 ng/ml.

And the “EC50 (ng/ml)-% pSTAT5 CD4 donor2” value (human PBMCs; CD4 cells, donor2)?
The value was 0.20 ng/ml.

And the “EC50 (ng/ml)-% pSTAT5 CD8 donor1” value (human PBMCs; CD8 cells, donor1)?
Its value is 0.17 ng/ml.

And the “EC50 (ng/ml)-% pSTAT5 CD8 donor2” value (human PBMCs; CD8 cells, donor2)?
The value was 0.15 ng/ml.

And the “EC50 (ng/ml)-% pSTAT5 CD56bright donor1” value (human PBMCs; CD56bright cells, donor1)?
Its value is 0.11 ng/ml.

And the “EC50 (ng/ml)-% pSTAT5 CD56bright donor2” value (human PBMCs; CD56bright cells, donor2)?
Its value is 0.19 ng/ml.

And the “EC50 (ng/ml)-% pSTAT5 CD56dim donor1” value (human PBMCs; CD56dim cells, donor1)?
Its value is 0.26 ng/ml.

What about the “EC50 (ng/ml)-% pSTAT5 CD56dim donor2” value (human PBMCs; CD56dim cells, donor2) of the same substance?
Its value is 0.54 ng/ml.

What about the “EC50 (ng/ml) pSTAT5 CD56bright NK” value (human PBMCs; Table 3, CD56bright NK cells) of the same substance?
The value was 0.4 ng/ml.

And the “EC50 (ng/ml)-% pSTAT5 CD3” value (human PBMCs; Table 7 Summary Table, CD3)?
The value was 0.17 ng/ml.

What about the “EC50 (ng/ml)-% pSTAT5 CD4” value (human PBMCs; Table 7 Summary Table, CD4) of the same substance?
Its value is 0.177 ng/ml.

What about the “EC50 (ng/ml)-% pSTAT5 CD8” value (human PBMCs; Table 7 Summary Table, CD8) of the same substance?
The value was 0.17 ng/ml.

And the “EC50 (ng/ml)-% pSTAT5 CD56bright” value (human PBMCs; Table 7 Summary Table, CD56bright)?
Its value is 0.11 ng/ml.

And the “EC50 (ng/ml)-% pSTAT5 CD56dim” value (human PBMCs; Table 7 Summary Table, CD56dim)?
The value was 0.26 ng/ml.

What about the “EC50 (ng/ml)-% pSTAT5 Treg” value (human PBMCs; Table 7 Summary Table, Treg) of the same substance?
Its value is 0.08 ng/ml.

What about the “EC50 (ng/ml)-MFI CD3 donor1” value (human PBMCs; pSTAT5 MFI, CD3 cells, donor1) of the same substance?
The value was 4.0 ng/mL.

What about the “EC50 (ng/ml)-MFI CD3 donor2” value (human PBMCs; pSTAT5 MFI, CD3 cells, donor2) of the same substance?
The value was 5.22 ng/mL.

What about the “EC50 (ng/ml)-MFI Treg donor1” value (human PBMCs; pSTAT5 MFI, CD4-Treg cells, donor1) of the same substance?
The value was 0.6 ng/mL.

And the “EC50 (ng/ml)-MFI Treg donor2” value (human PBMCs; pSTAT5 MFI, CD4-Treg cells, donor2)?
The value was 0.71 ng/mL.

And the “EC50 (ng/ml)-MFI CD4 donor1” value (human PBMCs; pSTAT5 MFI, CD4 cells, donor1)?
Its value is 3.6 ng/mL.

What about the “EC50 (ng/ml)-MFI CD4 donor2” value (human PBMCs; pSTAT5 MFI, CD4 cells, donor2) of the same substance?
Its value is 5.8 ng/mL.

And the “EC50 (ng/ml)-MFI CD8 donor1” value (human PBMCs; pSTAT5 MFI, CD8 cells, donor1)?
The value was 3.5 ng/mL.

What about the “EC50 (ng/ml)-MFI CD8 donor2” value (human PBMCs; pSTAT5 MFI, CD8 cells, donor2) of the same substance?
Its value is 5.5 ng/mL.

And the “EC50 (ng/ml)-MFI CD56bright donor1” value (human PBMCs; pSTAT5 MFI, CD56bright cells, donor1)?
Its value is 0.49 ng/mL.

What about the “EC50 (ng/ml)-MFI CD56bright donor2” value (human PBMCs; pSTAT5 MFI, CD56bright cells, donor2) of the same substance?
The value was 0.96 ng/mL.

What about the “EC50 (ng/ml)-MFI CD56dim donor1” value (human PBMCs; pSTAT5 MFI, CD56dim cells, donor1) of the same substance?
Its value is 1.4 ng/mL.

What about the “EC50 (ng/ml)-MFI CD56dim donor2” value (human PBMCs; pSTAT5 MFI, CD56dim cells, donor2) of the same substance?
Its value is 3.7 ng/mL.
